Literature values in US7442709B2, “N3-substituted imidazopyridine c-Kit inhibitors” (OSI Pharmaceuticals, Inc., priority 2003, dated 2008).
Structures can show the parent of a compound that is named as a salt.

Key:
[1] = system: MO7e human leukemia cells; conditions: GM-CSF stimulation
[2] = system: MO7e human leukemia cells

In the case of Cc1ccc(NC(=O)c2ccc(CN3CCN(C)CC3)cc2)cc1Nc1nccc(-c2cccnc2)n1 [Gleevec, imatinib mesylate], the “GM-CSF stimulated growth of MO7e human leukemia cells” value [1] is listed as “not affected”, the “Kit ligand-stimulated growth of MO7e human leukemia cells” value ([2]; Kit ligand stimulation) is listed as “inhibited” and the “Apoptosis in MO7e human leukemia cells” value ([2]; under Kit ligand-stimulated growth conditions) is listed as “induces apoptosis”.
